Data as given in PMC2790607, “Finding of the Low Molecular Weight Inhibitors of Resuscitation Promoting Factor Enzymatic and Resuscitation Activity” (PLoS ONE, 2009).
Values after ≈ are worked out from the molar mass of the structure shown. Where two headings read alike, the source gives them in different places.

Tests used:
[1] = molecular target: T1, ΔDUFRpf B (Mycobacterium tuberculosis, UniProt P9WG29); set-up: species or system M. tuberculosis; settings: inhibitor 2 and 4 µg/ml, ΔDUFRpf B 60 µg/ml
[2] = tested on: Laccase(1.10.3.2); test: Laccase activity (pyrocatechin, OD410); type: biochemical; settings: control 3.6
Description: (§1) Alcoholdehydrohenase(1.1.1.1) activity: ADH was dissolved in 50 mM phospahe buffer pH 7 at the concentration 10 µg/ml. The rate of the reaction was judged by transformation of NAD^+ (1 mM) into NADH+H^+. As the substrate ethanol was used. Activity was measured by OD340. Laccase(1.10.3.2) activity: Laccase was dissolved in the 50 mM citrate-phosphate buffer, pH4.5 at concentration 9 µg/ml. Pyrocatechin was used at concentration 11 µg/ml. Activity was measured by OD410. Trypsin(3.4.21.4) activity: The enzyme at concentration 8.0 µg/ml was dissolved in 50 mM Tris-HCl buffer pH 8.0. Concentration of the substrate (N-CBz-Gly-Gly-Arg-β-naphthylamide - Sigma-Aldrich)- 11 µg/ml. Registration of the kinetic curves was made fluorimetrically - excitation wavelength - 330 nm; emission - 420 nm. (0.02 MB DOC) Click here for additional data file.

[3] = molecular target: T2, Rpf Sm (Micrococcus luteus, UniProt O86308); test: Muralytic activity of Rpf, 4-MUF-3-NAG hydrolysis; type: biochemical, M. luteus
T2 construct: His-tag (inferred from the pET19b vector and the Ni2+-chelation purification); made in house; host or cells: E. coli HSM174 (DE3)
Description: The truncated form of M.luteus Rpf (RpfSm) was used for the analysis. The truncated protein contained conserved Rpf domain and additional 20 amino acids of the gene product, corresponding to the following amino acid sequence:
To determine a muralytic activity of the recombinant Rpfs', 4-methylumbelliferyl-β-D-N, N′, N″-triacetylchitotrioside (4-MUF-3-NAG) (“Sigma”, Germany) was applied. […] A number of experiments were performed in the presence of NPT compounds, in concentration range of 0.5–10 µg/ml. After 3 hours of incubation at 37°C, 2 µl of 10 M NaOH was added and the samples were frozen and kept at −20°C. […] The intensity of fluorescence was detected by the RF-5301PC fluorimeter (“SHIMADZU”, Japan) using excitation wavelength of 364 nm and a read-out of 448 nm.

[4] = tested on: M. tuberculosis "non-culturable" cells; type: cell-based, Mycobacterium tuberculosis; settings: inhibitor 10 µg/ml
[5] = tested on: Micrococcus luteus; test: microbe, parasite or virus in culture; type: cell-based; settings: Micrococcus luteus; lowest concentration which suppresses growth; determined during 24 hours; NI = no inhibition was observed
[6] = molecular target: T2, Rpf Sm; settings: inhibitor 2 and 4 µg/ml, Rpf Sm 40 µg/ml
[7] = molecular target: T1, ΔDUFRpf B; type: binding, M. tuberculosis
[8] = tested on: Trypsin(3.4.21.4); test: Trypsin activity (fluorimetric); type: biochemical; settings: control 10
Description: as §1

[9] = tested on: M. smegmatis; type: cell-based, Mycobacterium smegmatis; settings: at 0.1–1 µg/ml (not shown)
[10] = tested on: Alcoholdehydrohenase(1.1.1.1); test: Alcoholdehydrogenase activity (NAD+ to NADH, OD340); type: biochemical; settings: control 1.7
Description: as §1

[11] = tested on: M. smegmatis "non-culturable" cells; type: cell-based, Mycobacterium smegmatis; settings: MPN assay

T1 sequence (P9WG29 whole entry, looked up, stated change not applied): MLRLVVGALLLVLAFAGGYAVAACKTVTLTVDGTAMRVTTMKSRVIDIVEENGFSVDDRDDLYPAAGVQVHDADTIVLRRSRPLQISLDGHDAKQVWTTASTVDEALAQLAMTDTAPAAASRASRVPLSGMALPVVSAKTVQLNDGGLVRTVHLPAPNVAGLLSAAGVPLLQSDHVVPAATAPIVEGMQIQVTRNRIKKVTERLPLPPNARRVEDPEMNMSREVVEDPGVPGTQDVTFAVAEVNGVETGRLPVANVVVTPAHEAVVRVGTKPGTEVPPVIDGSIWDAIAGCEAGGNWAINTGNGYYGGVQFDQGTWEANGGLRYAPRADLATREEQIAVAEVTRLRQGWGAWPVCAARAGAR
T2 sequence (O86308 42-134): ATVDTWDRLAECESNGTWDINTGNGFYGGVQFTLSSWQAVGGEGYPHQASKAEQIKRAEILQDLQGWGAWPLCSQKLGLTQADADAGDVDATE

N#CSc1ccc(C(=O)c2ccccc2)cc1[N+](=O)[O-] [VII, 4-Benzoyl-2-nitrophenyl thiocyanate]
melting point: 104 to 106 °C
changes in the CD spectra of ΔDUFRpf B [1]: did not produce significant changes
τ1/2, time needed to achieve a 50% level of substrate conversion, Laccase ([2]; compound 4 µg/ml): 3.6 s
τ1/2, time needed to achieve a 50% level of substrate conversion, Laccase ([2]; compound 10 µg/ml): 3.5 s
IC50 [3]: 6.68 µM
type of inhibition of Rpf-Sm muralytic activity (Lineweaver-Burk plot) ([3]; substrate 3 to 24 µM, inhibitor 0.5 to 10 µg/ml): non-competitive inhibition
MPN, logarithmic transformation of cell concentration (cells/ml) ([4]; time 0 days): 3.48
MPN, logarithmic transformation of cell concentration (cells/ml) ([4]; time 14 days): 3.48
MPN, logarithmic transformation of cell concentration (cells/ml) ([4]; time 19 days): 3.48
MPN, logarithmic transformation of cell concentration (cells/ml) ([4]; time 21 days): 3.86
MPN, logarithmic transformation of cell concentration (cells/ml) ([4]; time 23 days): 5.38
MPN, logarithmic transformation of cell concentration (cells/ml) ([4]; time 27 days): 6.18
MPN, logarithmic transformation of cell concentration (cells/ml) ([4]; time 30 days): 6.18
MPN, logarithmic transformation of cell concentration (cells/ml) ([4]; time 33 days): 6.18
MPN, logarithmic transformation of cell concentration (cells/ml) ([4]; time 36 days): 6.18
MPN, logarithmic transformation of cell concentration (cells/ml) ([4]; time 40 days): 6.18
MIC [5]: 1 to 5 µg/mL (≈ 3.52 to 17.6 µM)
changes in the CD spectra of Rpf Sm [6]: did not produce significant changes
interaction with the buried tryptophanes of ΔDUFRpfB ([7]; fluorescence studies): interacted with at least two exposed and one buried tryptophan
accessible fraction of ΔDUFRpfB tryptophanes (fa) ([7]; modified Stern-Volmer equation, excitation 280 nm, emission 340 nm): ~65%
τ1/2, time needed to achieve a 50% level of substrate conversion, Trypsin ([8]; compound 4 µg/ml): 10 s
τ1/2, time needed to achieve a 50% level of substrate conversion, Trypsin ([8]; compound 10 µg/ml): 10 s
growth of active cells of M. smegmatis [9]: did not inhibit growth
τ1/2, time needed to achieve a 50% level of substrate conversion, Alchoholdehydrohenase ([10]; compound 4 µg/ml): 1.75 s
τ1/2, time needed to achieve a 50% level of substrate conversion, Alchoholdehydrohenase ([10]; compound 10 µg/ml): 1.7 s
concentrations active in suppressing resuscitation of M. smegmatis [11]: 0.1 to 1 µg/mL
